We go through 18 compounds from ChEMBL document CHEMBL6153082, “Macrocyclization as a Strategy for Kinetic Solubility Improvement: A Comparative Analysis of Matched Molecular Pairs” (J Med Chem, 2025).

Structures are written as SMILES. In brackets after ≈: the same amount, converted by molar mass.

A short description of data set [1]: Metabolic stability in mouse liver microsomes assessed as half life in presence of NADPH incubated for 30 mins by LC-MS/MS analysis. It counts as ADME, Microsome. In general terms: Microsomes from liver hold many membrane-bound enzymes, among them those of drug oxidation.
Data set [2] can be described thus: Unbound fraction in mouse microsome incubated for 4 hrs by LC-MS/MS analysis. It is filed as ADME. To be noted: microsomes.
Data set [3] in a line: Apparent permeability across apical to basolateral side in MDCK cells. It is filed as ADME, cell-based, Canis lupus familiaris. The conditions noted are these: dog.
Data set [4] in a line: Apparent permeability across basolateral to apical side in MDCK cells. It counts as ADME, cell-based, Canis lupus familiaris. The conditions noted are these: dog.
Data set [5] can be described thus: Lipophilicity, logD of the compound in n-octanol/aqueous at pH 7.4 incubated overnight by UPLC analysis. It counts as physicochemical.
Data set [6] is described as follows: Efflux ratio in dog MDCK cells. It counts as ADME, cell-based, Canis lupus familiaris.
A short description of data set [7]: Solubility of compound at pH 7.4. To be noted: buffer. It is filed as physicochemical.
The nature of data set [8]: Kinetic aqueous solubility of compound at pH 7.4 at 5 to 300 uM. It is filed as physicochemical. To be noted: dose 5-300 µM, read-out: Kinetic_solubility.
Data set [9] is described as follows: Dissociation constant, pKa of the compound by potentiometric titration analysis. It counts as physicochemical.

A word on the half-life: it is how long it takes for the measured level to halve. For orientation: fraction unbound means free concentration divided by total concentration. One may read the logD as the decadic logarithm of the distribution of all forms, ionised or not, between an organic phase and buffer at a given pH. A higher logD goes with a more lipophilic compound. As usually defined, the solubility is how much of the substance goes into solution per volume. `CCOc1ccccc1C(=O)N1CCN(C2CCCC2)C[C@@H]1C(=O)NC[C@H]1CCCCO1`: the half-life in data set [1] was found to be 120 min. The fraction unbound at 4 h in data set [2] amounted to 0.68. For the same compound, the values for the Papp in data set [3] and in [4] were 32 10^-6 cm/s and 50 10^-6 cm/s, respectively. In addition, the logD in data set [5] was found to be 2.5. The Ratio in data set [6] turned out to be 29. The compound also displayed a solubility in [7] of 303 µM (≈ 134 µg/mL).
Regarding `COc1cc2cc(c1OC)OC/C=C/COC(=O)[C@@H]1CCCCN1C(=O)[C@H]2C1CCCCC1`, the solubility kinetic in [8] turned out to be 103 µM (≈ 47.1 µg/mL).
Regarding `C=CCOc1ccccc1CN(CC(=O)N1CCC(CC(=O)NC2CC2)CC1)C1CCN(C)CC1`, in [1], the half-life turned out to be 120 min. Besides, in [2], the fraction unbound at 4 h was found to be 0.76. The Papp is reported as 1 10^-6 cm/s in [3] and 11 10^-6 cm/s in data set [4]. The compound further yielded a logD in data set [5] of 0.5. Further, the Ratio in [6] is listed as 2. In addition, in [7], the solubility came to 244 µM (≈ 118 µg/mL).
In general, Papp A→B refers to how fast a substance crosses the layer from the apical side. One may read the Papp B→A as the apparent permeability from the basolateral to the apical side of a cell layer. As a reminder, the efflux ratio is a quotient of directional permeabilities that is used to spot active efflux. Consider `CCC[C@H]1NC(=O)c2cccnc2OCCOCCN(C2CCCC2)CC2CCN(CC2)C1=O`, for which the half-life in [1] turned out to be 7.4 min. Also, the Papp A→B in data set [3] amounted to 10 ×10⁻⁶ cm/s. In [4], the Papp B→A stood at 56 ×10⁻⁶ cm/s. The logD in data set [5] is 1.5. In addition, in data set [6], the efflux ratio came to 5.4. In addition, in data set [7], the solubility was 303 µM (≈ 143 µg/mL).
`CCCOC(=O)[C@@H]1CCCCN1C(=O)[C@H](c1cc(OC)c(OC)c(OC)c1)C1CCCCC1`: the solubility kinetic in data set [8] was 45 µM (≈ 20.8 µg/mL).
`CCOc1ccccc1C(=O)N1CCN(C2CCCC2)C[C@@H]1C(=O)NC[C@@H]1CCCCO1`: the half-life in data set [1] came out at 1 min. Also, the fraction unbound at 4 h in data set [2] amounted to 0.68. For the same compound, the values for the Papp in data set [3] and in data set [4] were 29 10^-6 cm/s and 44 10^-6 cm/s, respectively. The logD in [5] is 2.5. In addition, the Ratio in data set [6] came out at 12. The same compound came in with a solubility in data set [7] of 170 µM (≈ 75.4 µg/mL).
For the compound `COc1cc2cc(OC)c1OCCCCOC(=O)[C@@H]1CCCCN1C(=O)[C@H]2C1CCCCC1`, in data set [8], the solubility kinetic was 137 µM (≈ 63 µg/mL).
Same read-out and setting: for `CCCc1cn(CCCOc2cc([C@@H](C(=O)N3CCCC[C@H]3C(=O)OC)C3CCCCC3)cc(OC)c2OC)nn1` the value was 65 µM (≈ 37.1 µg/mL).
`C=CCOc1ccccc1CN(CC(=O)N1CCC(CC(=O)NC2CC2)CC1)Cc1ccccc1`: the half-life in data set [1] amounted to 1 min. The compound also had a fraction unbound at 4 h in data set [2] of 0.57. In addition, the Papp in data set [3] was 8 10^-6 cm/s; in data set [4], 33 10^-6 cm/s. For the same compound, the logD in data set [5] was 3.8. In data set [6], the Ratio is recorded as 66. Besides, the concentration in solution in data set [7] (solubility) was 83.5 µM (≈ 39.7 µg/mL).
Turning to `CCC[C@@H](NC(=O)c1cccnc1OC)C(=O)N1CCC(CCN(CCOC)C2CCN(C)CC2)CC1`, the half-life in data set [1] turned out to be 103 min. Besides, the fraction unbound at 4 h in data set [2] worked out at 0.77. The Papp in data set [3] is recorded as 93 10^-6 cm/s; in [4] it was 88 10^-6 cm/s. In data set [5], this compound showed a logD of 0.8. For the same compound, the Ratio in [6] was found to be 38. Besides, in data set [7], the concentration in solution (solubility) was 303 µM (≈ 157 µg/mL).
Consider `C=CCOC(=O)[C@@H]1CCCCN1C(=O)[C@H](c1cc(OC)c(OC)c(OC)c1)C1CCCCC1`, for which the solubility kinetic in data set [8] was 12 µM (≈ 5.51 µg/mL).
As to `C=CCOc1ccccc1CN(CC(=O)N1CCC(CC(=O)NC2CC2)CC1)C1CCCC1`, the half-life in data set [1] is 5 min. Further, in data set [2], the fraction unbound at 4 h is 1. Also, the results for the Papp in [3] and in data set [4] were 3 10^-6 cm/s and 68 10^-6 cm/s, respectively. In data set [5], this compound gave a logD of 1.8. Also, in data set [6], the Ratio stood at 4. In data set [7], this compound yielded a solubility of 192 µM (≈ 87.1 µg/mL).
As usually defined, the pKa is the negative logarithm of the acid dissociation constant. Turning to `CCOc1ccccc1C(=O)N1CCN(Cc2ccccc2)C[C@@H]1C(=O)NC[C@@H]1CCCCO1`, in data set [1], the half-life amounted to 1 min. This compound returned a fraction unbound at 4 h in data set [2] of 1. The Papp in data set [3] is 33 10^-6 cm/s; in data set [4], 49 10^-6 cm/s. The pKa in data set [9] was 7.4. Besides, the logD in data set [5] was 3.2. Besides, in data set [6], the Ratio is 21. In [7], this compound returned a solubility of 237 µM (≈ 110 µg/mL).
On to `COc1cc2cc(c1OC)O[C@@H](C)CCn1cc(nn1)CCCCOC(=O)[C@@H]1CCCCN1C(=O)[C@H]2C1CCCCC1`, for which the solubility kinetic in data set [8] stood at 100 µM (≈ 58.3 µg/mL).
In the case of `C=CCOc1ccccc1CN(CC(=O)N1CCC(CC(=O)NC2CC2)CC1)C(C)C`, the half-life in data set [1] came out at 16 min. The fraction unbound at 4 h in [2] is 1. In addition, the values for the Papp in data set [3] and in data set [4] were 2 10^-6 cm/s and 57 10^-6 cm/s, respectively. This compound yielded a logD in [5] of 1. In [6], the Ratio amounted to 2. In addition, the solubility in [7] was determined as 167 µM (≈ 71.4 µg/mL).
Consider `CCCc1cn(CC[C@H](C)Oc2cc([C@@H](C(=O)N3CCCC[C@H]3C(=O)OC)C3CCCCC3)cc(OC)c2OC)nn1`, for which, in data set [8], the solubility kinetic is 65 µM (≈ 38 µg/mL).
As for `CCOc1ccccc1C(=O)N1CCN(Cc2ccccc2)C[C@@H]1C(=O)NC[C@H]1CCCCO1`, in data set [1], the half-life came to 120 min. The compound further registered a fraction unbound at 4 h in [2] of 1. For the same compound, the Papp is 32 10^-6 cm/s in data set [3] and 49 10^-6 cm/s in data set [4]. The pKa in data set [9] was 7.4. For the same compound, the logD in data set [5] came out at 3.2. Also, in data set [6], the Ratio is 69. In addition, the solubility in data set [7] is 287 µM (≈ 134 µg/mL).
As for `COc1cc2cc(c1OC)OCCCn1cc(nn1)CCCCOC(=O)[C@@H]1CCCCN1C(=O)[C@H]2C1CCCCC1`, the solubility kinetic in data set [8] came out at 100 µM (≈ 56.9 µg/mL).
